Test results as given in patent US6906069B1, “LXR modulators” (Amgen Inc., priority 1999, dated 2005).

Target: T1, LXRα (Homo sapiens, UniProt Q13133)
T1 construct: expressed in transfected cells; host or cells: 293 cells
T1 sequence (Q13133 209-447 limits assumed): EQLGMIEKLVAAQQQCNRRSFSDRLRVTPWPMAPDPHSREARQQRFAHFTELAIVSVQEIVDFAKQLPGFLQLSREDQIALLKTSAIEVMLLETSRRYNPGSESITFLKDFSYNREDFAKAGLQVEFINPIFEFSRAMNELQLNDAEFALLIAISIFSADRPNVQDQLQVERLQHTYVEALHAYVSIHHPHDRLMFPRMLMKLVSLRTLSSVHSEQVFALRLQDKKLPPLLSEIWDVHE
Experiment: cell-based GAL4-LXRα ligand-binding domain luciferase reporter screen for agonists
Details: 10 μM compound; transfected 293 cells; relative to control (no additional compound) assigned a value of 1
Experimental: In order to identify agonists for LXRα, a cell-based high throughput screen was developed. Briefly, a DNA-binding domain of the nonreceptor transcription factor GAL4 was fused to the putative ligand-binding domain of LXRα. The resulting construct was introduced into 293 cells, together with an UAS-containing luciferase reporter construct. The transfected cells were then treated with the compounds and luciferase activity was measured. Individual compounds were evaluated relative to a control (no additional compound) at a concentration of 10 μM. Relative luciferase activity is provided below for five of the compounds described in the Examples above (luciferase activity of the control was assigned a value of 1).

Q: With `CC(c1ccco1)N(C(=O)C12CC3CC(CC(C3)C1)C2)c1ccccn1` (centres unmarked) [Example 1] as the compound, how does the “Relative Activity (relative luciferase activity)” value (from here on “Relative Activity”) read?
A: Its value is 4.

Q: Which “Relative Activity” value does the source give for `CC(c1ccco1)N(C(=O)C12CC3CC(CC(C3)C1)C2)c1cccnc1` (centres unmarked) [Example 2] here?
A: The value was 5.

Q: For `CC(c1ccco1)N(C(=O)C12CC3CC(CC(C3)C1)C2)c1ccncc1` (centres unmarked) [Example 3], which “Relative Activity” value is on record?
A: The value was “≧10”.

Q: `CC(c1ccco1)N(C(=O)C12CC3CC(CC(C3)C1)C2)c1ccccc1` (centres unmarked) [Example 4] was tested. Which “Relative Activity” value did it give?
A: The value was 3.

Q: `CC(c1ccccn1)N(C(=O)C1(C)CCCCC1)C(C)c1ccco1` (centres unmarked) [Example 5] was tested. Which “Relative Activity” value did it give?
A: The value was “≧10”.
